Measurements published in patent US20240238423A9, “TETRAHYDROISOQUINOLINE HETEROBIFUNCTIONAL BCL-XL DEGRADERS” (Treeline Biosciences, Inc., priority 2022, published 2024).
Like-named read-outs stand apart in the source and are kept apart here.

Target: T1, Human BCL-XL protein (N-terminal HiBiT tagged BCL-XL in HT1080 cells) (Homo sapiens, UniProt Q07817)
T1 construct: expressed in transfected cells; host or cells: HT-1080 (ATCC CCL-121), stably transduced with lentivirus pLV-UBC-N-HiBiT-BCL-XL-PGK-puro and selected with puromycin
Assay: HiBiT based degradation assay
Format: cell-based
Details: HT1080 cells expressing HiBiT-BCL-XL; for Ymin (6 h) / Ymin (24 h): BCL-XL degradation normalized with DMSO control; for DC50: BCL-XL degradation
Procedure, shortened: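 This HiBiT degradation assay measured loss of BCL-XL in HT1080 cells that stably express an N-terminal HiBiT-BCL-XL fusion delivered by lentivirus. Cells were added to compound-spotted 384-well plates, and luminescence was read on a PHERAstar FSX reader. Signal was expressed relative to DMSO controls, curves were fitted by four-parameter logistic regression, and for hook-shaped curves the Ymin point served as the bottom plateau when calculating EC50.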

T1 sequence (Q07817 whole entry): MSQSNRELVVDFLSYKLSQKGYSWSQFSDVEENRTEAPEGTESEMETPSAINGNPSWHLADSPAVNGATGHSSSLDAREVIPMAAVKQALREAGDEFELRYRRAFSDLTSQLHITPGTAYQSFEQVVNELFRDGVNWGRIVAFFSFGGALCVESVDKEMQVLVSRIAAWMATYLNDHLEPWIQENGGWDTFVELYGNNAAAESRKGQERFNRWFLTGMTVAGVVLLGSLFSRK

| Ymin (6 h) | Ymin (24 h) | DC50 (6 h, read-out: EC50 (6 h)) [nM] | DC50 (24 h, read-out: EC50 (24 h)) [nM] | Compound |
| --- | --- | --- | --- | --- |
| A (Ymin < 50%) | A (Ymin < 50%) | < 100 | < 100 | Cc1cc(OCCCN2C[C@@H](C)N(CC(=O)N3CCN(c4ccc5c(C6CCC(=O)NC6=O)nn(C)c5c4)CC3)[C@@H](C)C2)ccc1-c1ccc(N2CCc3cccc(C(=O)Nc4nc5ccccc5s4)c3C2)nc1C(=O)O (stereo partly drawn) [Compound 154a, 6-(8-(Benzo[d]thiazol-2-ylcarbamoyl)-3,4-dihydroisoquinolin-2(1H)-yl)-3-(4-(3-((3R,5S)-4-(2-(4-(3-(2,6-dioxopiperidin-3-yl)-1-methyl-1H-indazol-6-yl)piperazin-1-yl)-2-oxoethyl)-3,5-dimethylpiperazin-1-yl)propoxy)-2-methylphenyl)picolinic acid] |
| B (50% ≤ Ymin < 70%) | A (Ymin < 50%) | < 100 | < 100 | Cc1cc(OCCCN2CCN(CC(=O)N3CCN(c4cccc5c(C6CCC(=O)NC6=O)nn(C)c45)CC3)CC2)ccc1-c1ccc(N2CCc3cccc(C(=O)Nc4nc5ccccc5s4)c3C2)nc1C(=O)O (stereo not drawn) [Compound 152, 6-(8-(Benzo[d]thiazol-2-ylcarbamoyl)-3,4-dihydroisoquinolin-2(1H)-yl)-3-(4-(3-(4-(2-(4-(3-(2,6-dioxopiperidin-3-yl)-1-methyl-1H-indazol-7-yl)piperazin-1-yl)-2-oxoethyl)piperazin-1-yl)propoxy)-2-methylphenyl)picolinic acid] |
| A (Ymin < 50%) | A (Ymin < 50%) | < 100 | < 100 | Cc1cc(OCCCN2CCN(CC(=O)Nc3ccc4c(C5CCC(=O)NC5=O)nn(C)c4c3)CC2)ccc1-c1ccc(N2CCc3cccc(C(=O)Nc4nc5ccccc5s4)c3C2)nc1C(=O)O (stereo not drawn) [Compound 119, 6-[8-(1,3-benzothiazol-2-ylcarbamoyl)-3,4-dihydro-1H-isoquinolin-2-yl]-3-[4-[3-[4-[2-[[3-(2,6-dioxo-3-piperidyl)-1-methyl-indazol-6-yl]amino]-2-oxo-ethyl]piperazin-1-yl]propoxy]-2-methyl-phenyl]pyridine-2-carboxylic acid] |
| – | B (50% ≤ Ymin < 70%) | – | < 100 | Cc1c(OC[C@H](C)CC2CCN(CC(=O)Nc3ccc4c(C5CCC(=O)NC5=O)nn(C)c4c3)CC2)cccc1-c1ccc(N2CCc3cccc(C(=O)Nc4nc5ccccc5s4)c3C2)nc1C(=O)O (single isomer, unassigned) [Compound 263a] |
| – | B (50% ≤ Ymin < 70%) | – | < 100 | Cc1c(OCC[C@@H]2CCN(CC(=O)Nc3cccc4c(C5CCC(=O)NC5=O)nn(C)c34)C2)cccc1-c1ccc(N2CCc3cccc(C(=O)Nc4nc5ccccc5s4)c3C2)nc1C(=O)O (stereo partly drawn) [Compound 231a, 6-[8-(1,3-benzothiazol-2-ylcarbamoyl)-3,4-dihydro-1H-isoquinolin-2-yl]-3-[3-[2-[(3S)-1-[2-[[3-(2,6-dioxo-3-piperidyl)-1-methyl-indazol-7-yl]amino]-2-oxo-ethyl]pyrrolidin-3-yl]ethoxy]-2-methyl-phenyl]pyridine-2-carboxylic acid] |
| B (50% ≤ Ymin < 70%) | – | < 100 | – | Cc1c(-c2ccc(N3CCc4cccc(C(=O)Nc5nc6ccccc6s5)c4C3)nc2C(=O)NCCCCCCCCCCCC(=O)Nc2cccc3c(C4CCC(=O)NC4=O)nn(C)c23)cnn1CC12CC3CC(CC(C3)C1)C2 (stereo not drawn) [Compound 110, 2-(5-(1-((3r,5r,7r)-adamantan-1-ylmethyl)-5-methyl-1H-pyrazol-4-yl)-6-((12-((3-(2,6-dioxopiperidin-3-yl)-1-methyl-1H-indazol-7-yl)amino)-12-oxododecyl)carbamoyl)pyridin-2-yl)-N-(benzo[d]thiazol-2-yl)-1,2,3,4-tetrahydroisoquinoline-8-carboxamide] |
